Data as given in patent US20180072997A1, “INHIBITORS OF HUMAN IMMUNODEFICIENCY VIRUS REPLICATION” (ViiV HEATHCARE UK (NO.5) LIMITED, priority 2015, published 2018).

Experiments:
[1] = system: recombinant NL4-3 virus (Renilla luciferase in nef) in MT-2 cells; assay: whole plant or invertebrate; assay type: cell-based, HIV; conditions: luciferase activity
Outline: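 MT-2 cells infected for 4-5 days with NL4-3 reporter virus (Renilla luciferase replacing part of nef, produced by transfection of 293T cells) in the presence of serial compound dilutions. Antiviral activity quantified by luciferase activity read with a live-cell substrate.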

[2] = Compound cytotoxicity, XTT-based colorimetric assay; assay type: cell-based; conditions: human, uninfected MT2 cells, day 4, XTT
Outline: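 Run under the antiviral-assay protocol but without virus. Viability was read on day 4 and CC50 values were derived from the readout.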

[3] = Renilla, NL43, MT-2 cells infected for 4-5 days with recombinant NL4-3 Renilla luciferase virus
[4] = MT-2 cells infected for 4-5 days with recombinant NL4-3 Renilla luciferase virus

Row | SMILES | EC50 [1, 3] [µM] | CC50 at 4 days [2] [µM] | EC50 [1, 4] [µM]
1 | COc1ccc(N(C)C(=O)[C@H](Cc2cc(F)cc(F)c2)NC(=O)Cn2c(=O)n(CC(=O)N[C@@H](Cc3cc(F)cc(F)c3)C(=O)N(C)c3ccc(OC)cc3)c3c(Cl)cccc32)cc1 [Example 74] | 0.03 | 11.3 | 
2 | COc1ccc(N(C)C(=O)[C@H](Cc2ccccc2)NC(=O)CS(=O)(=O)N[C@@H](Cc2ccccc2)C(=O)N(C)c2ccc(OC)cc2)cc1 [Example 63] | 1.09 | 30.2 | 
3 | Cc1ccc(N(C)C(=O)[C@H](Cc2cc(F)cc(F)c2)NC(=O)c2ccc(F)c(C(=O)N[C@@H](Cc3cc(F)cc(F)c3)C(=O)N(C)c3ccc(C)nc3)c2)cn1 [Example 184] | 0.19 | 11.1 | 
4 | COc1ccc(N(C)C(=O)[C@H](Cc2cc(F)cc(F)c2)NC(=O)Cc2cccc(CC(=O)N[C@@H](Cc3cc(F)cc(F)c3)C(=O)N(C)c3ccc(OC)cc3)c2)cc1 [Example 43] | 0.48 | 3.7 | 
5 | COc1ccc(N(C)C(=O)[C@H](Cc2ccccc2)NC(=O)c2cc(C(=O)N[C@@H](Cc3ccccc3)C(=O)N(C)c3ccc(OC)cc3)cc(C(C)(C)C)c2)cc1 [Example 103] | 0.15 | ≥ 33.3 | 
6 | CCN(C(=O)[C@H](Cc1cc(F)cc(F)c1)NC(=O)CN1c2ccccc2N(CC(=O)N[C@@H](Cc2cc(F)cc(F)c2)C(=O)N(CC)c2ccc(OC(F)F)cc2)S1(=O)=O)c1ccc(OC(F)F)cc1 [Example 147] | 0.09 | ≥ 100 | 
7 | CN(C(=O)[C@H](Cc1cc(F)cc(F)c1)NC(=O)NS(=O)(=O)N[C@@H](Cc1cc(F)cc(F)c1)C(=O)N(C)c1ccc2nccnc2c1)c1ccc2nccnc2c1 [Example 203] | 30.4 | ≥ 100 | 
8 | CN(C(=O)[C@H](Cc1ccccc1)Nc1ncc(-c2cnc(N[C@@H](Cc3ccccc3)C(=O)N(C)c3ccc4scnc4c3)nc2)cn1)c1ccc2scnc2c1 [Example 136] | 0.34 | ≥ 100 | 
9 | COc1ccc(N(C)C(=O)[C@H](Cc2ccccc2)NC(=O)CN2CCN(CC(=O)N[C@@H](Cc3ccccc3)C(=O)N(C)c3ccc(OC)cc3)C2=O)cc1 [Example 48] | 0.17 | 30.9 | 
10 | O=C(N[C@@H](Cc1cc(F)cc(F)c1)c1ncccc1Br)NS(=O)(=O)N[C@@H](Cc1cc(F)cc(F)c1)c1ncccc1Br [Example 36] | 7.27 | 65.3 | 
11 | COc1ccc(N(CCF)C(=O)[C@H](Cc2cc(F)cc(F)c2)NC(=O)Cn2c(=O)n(CC(=O)N[C@@H](Cc3cc(F)cc(F)c3)C(=O)N(CCF)c3ccc(OC)cc3)c3ccccc32)cc1 [Example 125] | 0.34 | ≥ 100 | 
12 | COc1ccc(N(C)C(=O)[C@H](Cc2cc(F)cc(F)c2)NC(=O)Cn2c(=O)c3ccccc3n(CC(=O)N[C@@H](Cc3cc(F)cc(F)c3)C(=O)N(C)c3ccc(OC)cc3)c2=O)cc1 [Example 101] | 0.03 | ≥ 100 | 
13 | COc1ccc(-n2ccnc2C(Cc2ccccc2)NC(=O)CN2c3ccccc3N(CC(=O)N[C@@H](Cc3ccccc3)c3nccn3-c3ccc(OC)cc3)S2(=O)=O)cc1 (some centres unmarked) [Example 166] | 6.7 | ≥ 100 | 
14 | CN(C(=O)[C@H](Cc1ccccc1)NC(=O)c1ccnc(N[C@@H](Cc2ccccc2)C(=O)N(C)c2ccc3scnc3c2)n1)c1ccc2scnc2c1 [Example 154] | 1.86 | ≥ 100 | 
15 | C=CCN(C(=O)[C@H](Cc1cc(F)cc(F)c1)NC(=O)NS(=O)(=O)N[C@@H](Cc1cc(F)cc(F)c1)C(=O)N(CC=C)c1ccc(OC)nc1)c1ccc(OC)nc1 [Example 194] | 0.58 | 41.9 | 
16 | COc1ccc(N(C)C(=O)[C@H](Cc2ccccc2)Nc2ccnc(N[C@@H](Cc3ccccc3)C(=O)N(C)c3ccc(OC)cc3)n2)cc1 [Example 145] | 12 | 19.1 | 
17 | CCc1ccc(N(C)C(=O)[C@H](Cc2cc(F)cc(F)c2)NC(=O)NS(=O)(=O)N[C@@H](Cc2cc(F)cc(F)c2)C(=O)N(C)c2ccc(CC)nc2)cn1 [Example 180] | 0.03 | 80.1 | 
18 | COc1ccc(N(C)C(=O)[C@H](Cc2cc(F)cc(F)c2)NC(=O)C(C)n2c(=O)n(C(C)C(=O)N[C@@H](Cc3cc(F)cc(F)c3)C(=O)N(C)c3ccc(OC)cc3)c3ccccc32)cc1 (single isomer, unassigned) [Example 132] |  | 7.3 | 1.94
19 | COc1ccc(N(C)C(=O)[C@H](Cc2ccccc2)Nc2ncnc(N[C@@H](Cc3ccccc3)C(=O)N(C)c3ccc(OC)cc3)n2)cc1 [Example 109] | 6.87 | 65.4 | 
20 | CCN(C(=O)[C@H](Cc1cc(F)cc(F)c1)NC(=O)NS(=O)(=O)N[C@@H](Cc1cc(F)cc(F)c1)C(=O)N(CC)c1ccc(NC(=O)OC)cc1)c1ccc(NC(=O)OC)cc1 [Example 149] | 1.64 | 79.5 | 

Row | SMILES | EC50 [1, 3] [µM] | CC50 at 4 days [2] [µM] | EC50 [1, 4] [µM]
21 | COc1ccc(N(C)C(=O)[C@H](Cc2ccccc2)NC(=O)CCCCC(=O)N[C@@H](Cc2ccccc2)C(=O)N(C)c2ccc(OC)cc2)cc1 [Example 23] | 1.16 | 26.9 | 
22 | CN(C(=O)[C@H](Cc1cc(F)cc(F)c1)NC(=O)NS(=O)(=O)N[C@@H](Cc1cc(F)cc(F)c1)C(=O)N(C)c1ccc2c(c1)ncn2C)c1ccc2c(c1)ncn2C [Example 186] | 6.15 | ≥ 100 | 
23 | CN(C(=O)[C@H](Cc1cc(F)cc(F)c1)NC(=O)c1cccc(S(=O)(=O)N[C@@H](Cc2cc(F)cc(F)c2)C(=O)N(C)c2ccc3scnc3c2)c1)c1ccc2scnc2c1 [Example 107] | 0.3 | ≥ 100 | 
24 | COc1ccc(N(C)C(=O)[C@H](Cc2ccccc2)NC(=O)[C@H](C)NC(=O)N[C@@H](C)C(=O)N[C@@H](Cc2ccccc2)C(=O)N(C)c2ccc(OC)cc2)cc1 [Example 104] | 0.13 | 31 | 
25 | C=CCN(C(=O)[C@H](Cc1cc(F)cc(F)c1)NC(=O)CC(C)(C)CC(=O)N[C@@H](Cc1cc(F)cc(F)c1)C(=O)N(CC=C)c1ccc(OC)cc1)c1ccc(OC)cc1 [Example 171] | 100 | ≥ 100 | 
26 | COc1ccc(N(C)C(=O)[C@H](Cc2ccccc2)NC(=O)CN2c3ccccc3N(CC(=O)N[C@@H](Cc3ccccc3)C(=O)N(C)c3ccc(OC)cc3)S2(=O)=O)cc1 [Example 27] | 0.04 | ≥ 100 | 
27 | COc1ccc(N(C)C(=O)[C@H](Cc2cc(F)cc(F)c2)NC(=O)NS(=O)(=O)N[C@@H](Cc2cc(F)cc(F)c2)C(=O)N(C)c2ccc(OC)cc2)cc1 [Example 20] | 0.01 | 35 | 
28 | COc1ccc(N(C)C(=O)[C@H](Cc2cc(F)cc(F)c2)NC(=O)Cn2c(=O)c3ccccc3c(=O)n2CC(=O)N[C@@H](Cc2cc(F)cc(F)c2)C(=O)N(C)c2ccc(OC)cc2)cc1 [Example 93] | 0.09 | 5.7 | 
29 | COc1ccc(N(C)C(=O)[C@H](Cc2ccccc2)NC(=O)NS(=O)(=O)N[C@@H](Cc2ccccc2)c2nc(C)no2)cc1 [Example 7] | 3.76 | ≥ 100 | 
30 | COc1ccc(N(C)C(=O)[C@H](Cc2cc(F)cc(F)c2)NC(=O)Cn2c(=O)n(CC(=O)N[C@@H](Cc3cc(F)cc(F)c3)C(=O)N(C)c3ccc(OC)cc3)c3cc(F)ccc32)cc1 [Example 76] | 0.03 | 11.4 | 
31 | COc1ccc(N(C)C(=O)[C@H](Cc2cc(F)cc(F)c2)NC(=O)Cn2c(=O)c(=O)n(CC(=O)N[C@@H](Cc3cc(F)cc(F)c3)C(=O)N(C)c3ccc(OC)cc3)c3ccccc32)cc1 [Example 98] | 0.03 | 11.2 | 
32 | C=CCN(C(=O)[C@H](Cc1cc(F)cc(F)c1)NC(=O)c1ccncc1C(=O)N[C@@H](Cc1cc(F)cc(F)c1)C(=O)N(CC=C)c1ccc(OC)cc1)c1ccc(OC)cc1 [Example 211] | 3.92 | 14 | 
33 | COc1ccc(N(C)C(=O)[C@H](Cc2ccccc2)NC(=O)c2ccc(C(=O)N[C@@H](Cc3ccccc3)C(=O)N(C)c3ccc(OC)cc3)s2)cc1 [Example 58] | 0.61 | 3.3 | 
34 | C=CCN(C(=O)[C@H](Cc1cc(F)cc(F)c1)NS(=O)(=O)c1ccccc1S(=O)(=O)N[C@@H](Cc1cc(F)cc(F)c1)C(=O)N(CC=C)c1ccc(OC)cc1)c1ccc(OC)cc1 [Example 193] | 1.74 | ≥ 33.3 | 
35 | CCN(C(=O)[C@H](Cc1cc(F)cc(F)c1)NC(=O)CN1c2ccccc2N(CC(=O)N[C@@H](Cc2cc(F)cc(F)c2)C(=O)N(CC)c2ccc3oc(=O)n(CC)c3c2)S1(=O)=O)c1ccc2oc(=O)n(CC)c2c1 [Example 155] | 2.13 | ≥ 33.3 | 
36 | COc1ccc(N(C)C(=O)[C@H](Cc2cc(F)cc(F)c2)NC(=O)c2cccc(C(=O)N[C@@H](Cc3cc(F)cc(F)c3)C(=O)N(C)c3ccc(OC)cc3)c2)cc1 [Example 49] | 0.04 | 10.8 | 
37 | C=CCN(C(=O)[C@H](Cc1cc(F)cc(F)c1)NS(=O)(=O)CS(=O)(=O)N[C@@H](Cc1cc(F)cc(F)c1)C(=O)N(CC=C)c1ccc(OC)cc1)c1ccc(OC)cc1 [Example 163] | 2.56 | ≥ 100 | 
38 | CN(C(=O)[C@H](Cc1cc(F)cc(F)c1)NC(=O)CN1c2ccccc2N(CC(=O)N[C@@H](Cc2cc(F)cc(F)c2)C(=O)N(C)c2ccc3c(c2)ncn3C)S1(=O)=O)c1ccc2c(c1)ncn2C [Example 209] | 0.42 | ≥ 100 | 
39 | CN(C(=O)[C@H](Cc1cc(F)cc(F)c1)NC(=O)NS(=O)(=O)N[C@@H](Cc1cc(F)cc(F)c1)C(=O)N(C)c1ccc2c(cnn2C)c1)c1ccc2c(cnn2C)c1 [Example 185] | 0.08 | 96 | 
40 | COc1ccc(N(C)C(=O)[C@H](Cc2ccccc2)NC(=O)C=C(C)CC(=O)N[C@@H](Cc2ccccc2)C(=O)N(C)c2ccc(OC)cc2)cc1 (single isomer, unassigned) [Example 113] |  | 25.3 | 0.36
